{
  "source": "paper PMC9962741",
  "about": "“In Silico and In Vitro Screening of Serine Racemase Agonist and In Vivo Efficacy on Alzheimer’s Disease Drosophila melanogaster” (Pharmaceuticals, 2023)",
  "target": "T1, serine racemase (SRR) (Homo sapiens, UniProt Q9GZT4)",
  "T1 construct": "SRR Enzyme Human Recombinant (ENZ-232, ProSpec)",
  "T1 sequence (Q9GZT4 1-340)": "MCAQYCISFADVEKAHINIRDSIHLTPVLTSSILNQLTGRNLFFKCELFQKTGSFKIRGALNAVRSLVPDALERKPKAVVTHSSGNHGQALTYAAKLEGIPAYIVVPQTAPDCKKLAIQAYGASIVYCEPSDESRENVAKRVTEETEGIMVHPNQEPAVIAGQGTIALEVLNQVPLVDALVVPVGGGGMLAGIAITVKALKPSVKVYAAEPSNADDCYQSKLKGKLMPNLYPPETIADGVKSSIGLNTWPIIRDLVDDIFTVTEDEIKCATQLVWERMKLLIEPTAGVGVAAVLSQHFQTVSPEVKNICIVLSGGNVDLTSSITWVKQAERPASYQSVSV",
  "assay": "recombinant SRR racemization of L-serine, D-serine read by coupled DAAO/HRP luminol luminescence (activation)",
  "assay_type": "biochemical",
  "data": [
    {"smiles": "NC(CSc1nc2ccccn2c1[N+](=O)[O-])C(=O)O", "note": "(stereo not shown) [NSC294149, 2-amino-3-(3-nitroimidazo[1,2-a]pyridin-2-yl)sulfanylpropanoic acid]", "values": [
      {"measurement": "% increase of SRR activity", "result": "200 % increase of SRR activity"}
    ]}
  ]
}
